Assays:
ADH = assay: Enzymatic oxidation of 65 mM ethanol by ADH/NAD in presence of trapping mixture; type: biochemical; settings: 650 mM, Tris without alpha-effect amine, or carboxymethoxyamine and borate buffer without primary amine
Procedure: To a reaction mixture containing 5 IU ADH, 100 mM NAD, pH 9.5 and 65 mM ethanol was added a trapping mixture containing:
50 mM Carboxymethoxyamine, pH 10
A trapping mixture containing:
150 mM Carboxymethoxyamine, pH 10
was substituted for the trap in Example 1.
100 mM Hexanediamine, pH 10
150 mM Allylhydroxylamine, pH 9.8
100 mM Nitrobenzylhydroxylamine, pH 10

alcohol dehydrogenase = assay: Relative equilibrium constants of trapping agents from NADH production by alcohol dehydrogenase after 10 minutes; type: biochemical; settings: 5 mM trapping agent, 200 mM Glycine pH 9.5, 10 mM NAD, 5 mM ethanol, 125 IU ADH
Procedure: The relative equilibrium constants for trapping agents are listed below in Table 1. […] The reaction formulation was as follows: […] 5 mM ethanol 5 mM trapping agent 125 IU ADH

[1] = test system: alcohol dehydrogenase (ADH); settings: background statement; cited from earlier work
[2] = Trapping of aldehyde/ketone oxidation product and alcohol conversion in enzymatic determination of alcohol (general statements); type: biochemical; settings: diamine alone, without alpha-effect amine
From the text: For reasons which are not well understood at the present time, the use of a combination of alpha-effect and primary amines according to the present invention dramatically increases the aldehyde/ketone trapping capacity of the amine trap, as compared to prior art amine traps consisting essentially of primary amine or of alpha-effect amine. Increases in trapping capacity, as measured by effective inactivation of aldehyde/ketone oxidation product in the reaction mixture, of up to about 100-fold over known prior art traps are typical.
With proper selection of amines, typical substrate conversions of about 100% are obtainable without dilution of the sample alcohol concentrations up to about 150 mM, thus permitting accurate and reliable end-point determinations. Such conversions are obtained by selection of amines for trap efficiency so that accumulation of active oxidation product is avoided. This ensures that a favorable reaction equilibrium is established, and that the catalyzing enzyme is not deactivated by oxidation product; the use of amines in the practice of the invention which tend to deactivate the catalyzing enzyme should, of course, be avoided.

[3] = test system: alcohol dehydrogenase (ADH); settings: cited from earlier work

Row | RELATIVE EQUILIBRIUM CONSTANT (alcohol dehydrogenase) | Compound | also measured
1 | 38.6 | NOCC(=O)O [Carboxymethoxyamine] | Alcohol oxidation, single amine type (ADH): did not result in the complete oxidation of the alcohol
2 |  | CC=O [acetaldehyde] | Acetaldehyde concentration that inhibits alcohol dehydrogenase [1]: greater than 1 mM
3 | 25.3 | C=CCON [Allylhydroxylamine] | 
4 |  | NCCCCCCN [1,6-hexanediamine] | Performance as sole trapping agent [2]: very satisfactory results are obtained
5 | 202.0 | Nitrobenzylhydroxylamine | 
6 | 11.8 | CCON [Ethylhydroxylamine] | 
7 | 11.7 | CON [Methoxyamine] | 
8 | 40.9 | NOCc1ccccc1 [O-Benzylhydroxylamine] | 

Row | Compound | RELATIVE EQUILIBRIUM CONSTANT (alcohol dehydrogenase) | also measured
9 | NC(CO)(CO)CO [Tris, Tris hydroxyl methylamine methane] | .2 | Alcohol oxidation, single amine type (ADH): did not result in complete alcohol oxidation; Conversion of the alcohol ([3]; ADH confined by semi-permeable membrane, continuous flow): about 18%; Capability of trapping high acetaldehyde concentrations ([3]; Tris by itself, acetaldehyde on the order of 85 mM): not capable by itself of reacting with and removing such high concentrations of acetaldehyde

Reference: US5112741A, “Acetaldehyde trapping system” (Enzymatics, Inc., priority 1988, dated 1992)
